The values below come from PMC4957076, “Shared mechanism of teratogenicity of anti-angiogenic drugs identified in the chicken embryo model” (Scientific Reports, 2016).

Where two headings read alike, the source gives them in different places.

One may read the IC50 as the concentration needed to halve the response being measured.

One data set relates to Rat. Conditions: cited from earlier work; for Systemic exposure (AUC) compared to human exposure: exposure at which defects were produced.
Data set [1] has as its system fli1:EGFP zebrafish embryos. Put plainly: fli1:EGFP zebrafish embryo exposure: survival and intersegmental vessel development. Format: in vivo. Conditions: for survival: 24 hours after exposure; for relative potency in reducing vessel outgrowth: concentration gradient, within 24 hours of drug exposure. On the procedure:
We then examined the extent and nature of the anti-angiogenic effects of the compounds using transgenic fli1:EGFP zebrafish embryos. The vasculature of these fish is tagged with EGFP and the transparency of the zebrafish allows for visualization of the forming blood vessels and any effect of anti-cancer drugs on their development over time (Fig. 4). A known anti-angiogenic and teratogenic compound (CPS49) was screened alongside the drugs as a positive control at 10 μg/mL (30 μM), a previously established anti-angiogenic concentration.
fli1:EGFP zebrafish were obtained from the Zebrafish international Resource Centre[29] and maintained in an approved aquarium habitat at 28 °C. At 24 hours post fertilization (hpf) the embryos were checked for GFP expression using a fluorescent microscope and manually dechorionated with forceps, exposed to either a vehicle control, or an anti-angiogenic anti-cancer compound (at 24 hpf) for 24 hours and imaged at 48 hpf. At this point the embryos were anaesthetized in 0.1% tricaine and the length and number of intersegmental vessels (ISV) were quantified as previously described. A minimum of 10 embryos were screened per drug, per concentration, and experiments were performed in triplicate.

The conditions of data set [2]: human; cited from earlier work.
Data set [3] relates to chicken embryos. The settings on record: for survival rate: 48 hours post drug application. On the procedure: We then administered the compounds to developing chicken embryos to observe any teratogenic effects. […] At 48 hours post drug application both the survival rate and the incidence of defects were analyzed. A range of concentrations was tested to determine the effects and optimal concentration that was not 100% lethal.
Fertilized white leghorn chicken embryos purchased from Henry Stewart Ltd. (Herefordshire, United Kingdom) were maintained in an incubator as described previously. At Hamburger and Hamilton stage 18–20 (E2.5-3)[54] the eggs were windowed and the embryos were prepared for drug exposure. To establish a dose response the drugs were applied once to the embryos and growth was monitored as described previously. In a second set of experiments, filter paper squares were cut 100 μm × 100 μm and soaked in the compound of interest for 10 minutes. While the filter paper squares absorbed the solution, embryonic membranes were removed and the sponge was then placed onto the limb bud. The eggs were sealed with tape and returned to an incubator. The embryos were checked daily for developmental defects and to ensure the filter paper squares remained in place. Control embryos were treated with 100 μL PBS with 0.1% DMSO. Embryos were removed from the eggs and fixed in 5% TCA at 4 degrees for 24 hours. Embryos were then washed in alcian blue for 8 hours, and placed in acid ethanol over night before being dehydrated in 100% ethanol for three one hour treatments. The tissue was then cleared in methyl salicylate. Cartilage was imaged and subsequently measured using a graticule scale and ImageJ. A minimum of 8 embryos was used per drug, per concentration. All animal work was licensed and carried out in accordance with and with approval of UK Home Office and Institutional ethical and welfare guidelines.

For the next data set, the system named is HUVEC cells. Put plainly: Endothelial cell proliferation assay (CCK-8). Format: cell-based, Human. The settings on record: 18 hours exposure, CCK-8 assay, n = 9. On the procedure:
Anti-angiogenic drugs were screened in a concentration gradient in the HUVEC culture assay. […] Cell proliferation was assessed using a CCK-8 assay (Dojindo). Statistical analysis by two-way Anova. Error represents the standard error of the mean.
HUVEC cells were purchased from ATCC (Manassas, VA) and cultured as previously described. No further authentication was performed. Cells were seeded at 6.5 × 10^4 cells per well in 100 μL of medium per well. Drugs were diluted in prewarmed DMEM. Serial dilutions were performed from 1000–0.1 nM. The cells were left to grow for 18 hours with exposure to vehicle control (DMSO) or drugs. Experiments were done in triplicate each time. Cellular proliferation was assessed using a CCK-8 assay (Dojindo, Rockville, MD). All plates were read at 450 nm.
In general terms: Tetrazolium dyes change colour on reduction, which living cells bring about.

The next data set concerns Rabbit. Conditions: cited from earlier work; for Systemic exposure (AUC) compared to human exposure: exposure at which defects were produced.
Another data set has as its system Mouse. Conditions: cited from earlier work.
For data set [4], the system named is chicken embryos. The settings on record: cited from earlier work.
The mark [5] stands for this setting: 2.5 μg/embryo, global treatment.

For `COc1cc2c(Nc3ccc(Br)cc3F)ncnc2cc1OCC1CCN(C)CC1` [Vandetanib, vandetanib], the Defects produced entry with Rat (Rat) was “Increased pre- & post-implantation loss, malformations of heart vessels, skeletal variations, delayed ossification of the skull, vertebrae & sternum”. The survival in data set [1] (10 μg/mL) worked out at 60%; in data set [1] (50 μg/mL), 15.38%; in data set [1] (100 μg/mL), 10%. Also, the “relative potency in reducing vessel outgrowth” value in data set [1] is “least potent”. In addition, the “Clinical Toxicities” value in data set [2] was “Cardiotoxicity”. Further, the survival rate result with chicken embryos [3] (5 μg/embryo, global treatment) is on record as “no death occurred”; in the data set with chicken embryos [3] (10 μg/embryo, global treatment) it was 74%. For the same molecule, the “Defects produced in chicken embryos” value with chicken embryos [3] (Table 1 summary) is reported as “Embryolethality increased, limb, spine, microopthalmia, necrosis of YSM”. Besides, the “defects observed in treated embryos” value in the data set with chicken embryos [3] (in vivo) was “limb reductions, micropthalmia, twisted spinal cords, and necrosis and hemorrhaging in the YSM”.
As for `CCN(CC)CCNC(=O)c1c(C)[nH]c(/C=C2\C(=O)Nc3ccc(F)cc32)c1C` [Sunitinib, sunitinib], the results for the “Systemic exposure (AUC) compared to human exposure” value in the data set on Rat (Rat) and in the data set on Rabbit (Rabbit) were 5.5× and 0.3×, respectively. In addition, the Defects produced entry is reported as “Embryolethality increased, fetal skeletal malformations (ribs/vertebrae)” in the data set with Rat (rat, in vivo) and “Increased embryolethality, cleft palate malformations” in the data set with Rabbit (rabbit, in vivo). Moreover, the IC50 with HUVEC cells (Homo sapiens) is under 10 nM. For the same molecule, the survival in data set [1] (10 μg/mL) was 61.90%; in data set [1] (50 μg/mL), 21.05%; in data set [1] (100 μg/mL) it was 0%. In addition, the “relative potency in reducing vessel outgrowth” value in data set [1] is on record as “most potent”. The “Clinical Toxicities” value in data set [2] is listed as “Cardiotoxicity”. In the data set on chicken embryos [3] (5 μg/embryo, global treatment), the survival rate is recorded as 72%. Also, the “Defects produced in chicken embryos” value in the data set with chicken embryos [3] (in vivo) was “Embryolethality increased, limb, spinal, microopthalmia, growth inhibition, necrosis of YSM”. The “defects observed in treated embryos” value in the data set with chicken embryos [3] (in vivo) was “in most embryos limb defects were observed, some also exhibited microopthalmia and spinal cord twisting”.
With `CO[C@H]1C[C@@H]2CC[C@@H](C)[C@@](O)(O2)C(=O)C(=O)N2CCCC[C@H]2C(=O)O[C@H]([C@H](C)C[C@@H]2CC[C@@H](OCCO)[C@H](OC)C2)CC(=O)[C@H](C)/C=C(\C)[C@@H](O)[C@@H](OC)C(=O)[C@H](C)C[C@H](C)/C=C/C=C/C=C/1C` [Everolimus, everolimus], the Defects produced entry in the data set with Rat (Rat) is “Increased resorption, pre- and post-implantation loss, decreased numbers of live fetuses, malformation and retarded skeletal development”; in the data set with Rabbit (Rabbit) it was “Increased resorptions”. Also, the figures for the “Systemic exposure (AUC) compared to human exposure” value in the data set with Rat (Rat) and in the data set with Rabbit (Rabbit) were 0.04× and 1.6×, respectively. The molecule also registered an IC50 in the data set on HUVEC cells (Homo sapiens) of under 10 nM. The survival result in data set [1] (10 μg/mL) is reported as “did not impact the survival”; in data set [1] (50 μg/mL) it was “did not impact the survival”; in data set [1] (100 μg/mL) it was 35.71%. For the same molecule, the “relative potency in reducing vessel outgrowth” value in data set [1] is listed as “least potent”. For the same molecule, the “Clinical Toxicities” value in data set [2] is “Stomatitis, noninfectious pneumonitis, rash, hyperglycemia and immunosuppression”. Also, the survival rate with chicken embryos [3] (5 μg/embryo, global treatment) was 80%; with chicken embryos [3] (10 μg/embryo, global treatment), 62.5%. Further, in the data set on chicken embryos [3] (in vivo), the “Defects produced in chicken embryos” value was “Embryolethality increased, limb, spine, microopthalmia, necrosis of YSM”. Besides, the “defects observed in treated embryos” value in the data set on chicken embryos [3] (in vivo) was “hemorrhaging, spinal cord twisting and necrosis in the YSM”.
As to `CNC(=O)c1cc(Oc2ccc(NC(=O)Nc3ccc(Cl)c(C(F)(F)F)c3)cc2)ccn1` [Sorafenib, sorafenib], the Defects produced entry in the data set with Rat (Rat) was “Increased post implantation loss, resorptions, skeletal retardations, retarded fetal weight”; in the data set on Rabbit (Rabbit) it was “Increased post implantation loss, resorptions, skeletal retardations, retarded fetal weight”. For the same molecule, the “Systemic exposure (AUC) compared to human exposure” value in the data set with Rat (Rat) and with Rabbit (Rabbit) was 0.008× in each case. Moreover, the IC50 in the data set with HUVEC cells (Homo sapiens) is under 50 nM. Moreover, the survival in data set [1] (10 μg/mL) is 18.18%; in data set [1] (50 μg/mL), 15.38%; in data set [1] (100 μg/mL) it was “No embryos survived”. Also, the “relative potency in reducing vessel outgrowth” value in data set [1] is recorded as “most potent”. In data set [2], the “Clinical Toxicities” value is listed as “Cardiotoxicity”. The survival rate with chicken embryos [3] (5 μg/embryo, global treatment) was found to be 54.5%; in the data set on chicken embryos [3] (10 μg/embryo, global treatment), 47%. Also, in the data set with chicken embryos [3] (in vivo), the “Defects produced in chicken embryos” value is “Embryolethality increased, limb, growth inhibition, necrosis of YSM”.
On to `CNC(=O)c1ccccc1Sc1ccc2c(/C=C/c3ccccn3)n[nH]c2c1` [Axitinib, axitinib], for which the values for the survival in data set [1] (10 μg/mL), in data set [1] (50 μg/mL) and in data set [1] (100 μg/mL) were 40%, 42.12% and 38.89%, respectively. The “Clinical Toxicities” value in data set [2] was “Cardiotoxicity”. The “Systemic exposure (AUC) compared to human exposure” value in the data set on Mouse (Mouse/Mice) is 10×. In the data set with Mouse (mouse, in vivo), the Defects produced result is on record as “Increased post implantation loss, cleft palate malformation, variation in skeletal ossification”. In addition, the survival rate in the data set on chicken embryos [3] (setting [5]) was 55.5%; in the data set on chicken embryos [3] (5 μg/embryo, global treatment), “no embryos survived”. Further, in the data set on chicken embryos [3] (Table 1 summary), the “Defects produced in chicken embryos” value is reported as “Embryolethality increased, limb, growth inhibition, necrosis of YSM”. Further, in the data set with chicken embryos [3] (global treatment, surviving embryos), the “defects observed in treated embryos” value is “most embryos exhibited necrosis within the surrounding YSM and hemorrhaging”.
In the data set with HUVEC cells, `O=C1c2c(F)c(F)c(F)c(F)c2C(=O)N1c1ccc(F)cc1F` [CPS49] had an IC50 of under 50 nM. Besides, in data set [1] (10 μg/mL (30 μM), versus vehicle control 0.1% DMSO), the “blood vessel outgrowth and number of forming vessels” value is “significant reduction in both blood vessel outgrowth and the number of forming vessels”. The survival in data set [1] (10 μg/mL) is listed as 50%. Also, the “anti-angiogenic activity in chicken embryo” value with chicken embryos [4] (10 μg/embryo) is reported as “potent anti-angiogenic activity”. In addition, the “Defects produced in chicken embryos” value with chicken embryos [3] (Table 1 summary) is listed as “Embryolethality, cranial hemorrhaging, micropthalmia, limb defects, spine”.
Consider `Nc1cccc2c1C(=O)N(C1CCC(=O)NC1=O)C2=O` (stereo not drawn) [pomalidomide], for which, in the data set with chicken embryos [4] (at potent anti-inflammatory doses), the “teratogenicity in chicken embryos” value was “not teratogenic”.
On to bevacizumab, for which, in the data set on Rat (rat, in vivo), the embryotoxicity in rats entry was “embryotoxicity” and the “placental transfer in rats” value is on record as “dose-dependent placental transfer”. Further, the teratogenicity in rabbits result in the data set on Rabbit (rabbit, in vivo, iv) was “teratogenicity”.
Regarding `Cc1ccc(Nc2nccc(N(C)c3ccc4c(C)n(C)nc4c3)n2)cc1S(N)(=O)=O` [Pazopanib, pazopanib], the Defects produced entry in the data set on Rat (Rat) is “Teratogenic, embryotoxic, fetotoxic & abortifacient. Cardiovascular malformations, incomplete/absent ossification, reduced fetal body weight, pre- and post-implantation embryolethality”; in the data set with Rabbit (Rabbit), “Increased post-implantation loss, abortion, 100% litter loss”. For the same molecule, the figures for the “Systemic exposure (AUC) compared to human exposure” value with Rat (Rat) and in the data set with Rabbit (Rabbit) were 0.1× and 0.02×, respectively. The “IC50, endothelial cell proliferation” value in the data set with HUVEC cells was “one of the highest IC50s in vitro”. In addition, the survival entry is recorded as “did not affect the survival” in data set [1] (10 μg/mL), 83.33% in data set [1] (50 μg/mL) and 50% in data set [1] (100 μg/mL). The “relative potency in reducing vessel outgrowth” value in data set [1] is on record as “most potent”. Besides, the “Clinical Toxicities” value in data set [2] is on record as “Cardiotoxicity”. The survival rate in the data set on chicken embryos [3] (1 μg/embryo, global treatment) came out at 16%; with chicken embryos [3] (setting [5]) it was 22%; in the data set on chicken embryos [3] (5 μg/embryo, global treatment), 30%. For the same molecule, the “Defects produced in chicken embryos” value with chicken embryos [3] (Table 1 summary) is recorded as “Embryolethality increased, limb, spine, necrosis of YSM”. In addition, the “defects observed in treated embryos” value with chicken embryos [3] (in vivo) was “malformation of the blood vessels and necrosis in the YSM, and twisted spinal cords”.
